Laboratory results published in PMC8807399, “Synthesis, Characterization, and in vivo Evaluation of a Novel Potent Autotaxin-Inhibitor” (Frontiers in Pharmacology, 2022).
Values after ≈ are worked out from the molar mass of the structure shown.

Legend:
[1] = biological target: T1, LPA2 receptor (Homo sapiens, UniProt Q9HBW0); assay: Off-target screen LPA2 receptor, antagonist mode; type: cell-based; settings: 10 µM, single point, duplicates
T1 construct: purchased Eurofins CEREP SA

[2] = biological target: T2, HDAC11 (Homo sapiens, UniProt Q96DB2); assay: Off-target screen HDAC11; type: biochemical; settings: 10 µM; single point, duplicates
T2 construct: purchased Eurofins CEREP SA

[3] = In vitro microsomal stability, human; type: in vitro ADME; settings: human microsomes, 1 µM; value of 10 = low clearance, essentially below detection limit
Method: Incubations of a test compound at a concentration of 1 µM with microsomes (0.5 mg/ml) from the appropriate species (human, mouse, or rat) plus cofactor NADPH were performed in 96-well plates at 37°C on a TECAN automated liquid handling system (Tecan Group Ltd., Männedorf, Switzerland). After pre-incubation of the test compound with the microsomes for 10 min, the enzymatic reaction was started by the addition of cofactors. Aliquots of the incubations are removed at 1, 3, 6, 9, 15, 25, 35, and 45 min and are then quenched with 1:3 (v/v) acetonitrile containing internal standards. Samples were then cooled and centrifuged before analysis of the supernatant by LC-MS/MS. Logarithmic Peak area ratios (test compound peak area/internal standard peak area) were plotted against incubation time and a linear fit made to the data with emphasis upon the initial rate of compound disappearance. The slope of the fit was then used to calculate the intrinsic clearance: Clint (µL/min/mg protein) = −slope (min-1) * 1,000/[protein concentration (mg/ml)].

[4] = biological target: T3, Alpha1A-adrenoreceptor (Homo sapiens, UniProt P35348); assay: Off-target screen Alpha1A-adrenoreceptor; type: binding; settings: 10 µM; single point, duplicates
T3 construct: purchased Eurofins CEREP SA

[5] = biological target: T4, Acetylcholinesterase (Homo sapiens, UniProt P22303); assay: Off-target screen Acetylcholinesterase; type: biochemical; settings: 10 µM; single point, duplicates
T4 construct: purchased Eurofins CEREP SA

[6] = biological target: T5, Somatostatin receptor 4 (Homo sapiens, UniProt P31391); assay: Off-target screen Somatostatin receptor 4; type: binding; settings: 10 µM; single point, duplicates
T5 construct: purchased Eurofins CEREP SA

[7] = biological target: T6, HDAC3 (Homo sapiens, UniProt O15379); assay: Off-target screen HDAC3; type: biochemical; settings: 10 µM; single point, duplicates
T6 construct: purchased Eurofins CEREP SA

[8] = biological target: T7, MMP-9 (Homo sapiens, UniProt P14780); assay: Off-target screen MMP-9; type: biochemical; settings: 10 µM; single point, duplicates
T7 construct: purchased Eurofins CEREP SA

[9] = biological target: T8, ACE (Homo sapiens, UniProt P12821); assay: Off-target screen ACE; type: biochemical; settings: 10 µM; single point, duplicates
T8 construct: purchased Eurofins CEREP SA

[10] = biological target: T9, LPA3 receptor (Homo sapiens, UniProt Q9UBY5); assay: Off-target screen LPA3 receptor, agonist mode; type: cell-based; settings: 10 µM, single point, duplicates
T9 construct: purchased Eurofins CEREP SA

[11] = test system: total basal plasma LPA; assay: Plasma LPA profile in rat (PK/PD), basal LPA; type: in vivo
Method: Plasma samples were collected in triplicates at 0, 1, 3, 6, and 24 h and were added to heparinated tubes and kept at 0°C until further processing. Sampling and immediate processing at 0°C is crucial for the measurements of basal levels, since at higher temperatures, LPA is produced rapidly according to the ATX activity in the sample. One aliquot was used to determine basal levels of LPAs 16:0, 18:0, 18:1, and 20:4 as well as exposure of 13 by LC-MS/MS. A detailed method for LPA analysis is described in the Supplementary Material Section 1.3. The other 2 aliquots were used to determine ATX activity by incubation of the sample at 37°C for 4 h, followed again by analysis of LPA levels in the same way as for the basal LPA levels. LPA profiles were analyzed using MS Excel (Microsoft Corporation).
Therefore, modulation of total basal LPA was largely driven by modulation of LPA 20:4 (Figure 2A).

[12] = biological target: T10, MAO-B (Homo sapiens, UniProt P27338); assay: Off-target screen MAO-B; type: biochemical; settings: 10 µM; single point, duplicates
T10 construct: purchased Eurofins CEREP SA

[13] = biological target: Glycine receptor (strychnine insensitive) (Rattus norvegicus, UniProt P35439); assay: Off-target screen Glycine receptor (strychnine insensitive); type: binding; settings: 10 µM; single point, duplicates
[14] = Artificial membrane permeability assay; type: in vitro ADME; settings: PAMPA, read-out: Permeability Pe
Method: The assay was performed in an automated fashion on 96-well microplates. The permeation of drugs was measured using a “sandwich” construction: A filter-plate was coated with phospholipids (membrane) and placed into a donor compartment containing a compound/buffer solution. Finally, the top of filter-plate was filled with buffer solution (acceptor). Donor concentration was measured at t-start (reference) and compared with the donor and acceptor concentration after a certain time (t-end) to calculate the extent of passage of the compound through the membrane. The main readout of the assay was the permeability value Pe expressed in 10^–6 * cm/s. Secondary readouts determined were the amount of compound in the donor and acceptor compartments as well as the retention in the membrane. Depending on the permeation rate and the membrane retention the compounds were classified as low (Pe < 0.2 and membrane < 20%) or medium and high (Pe ≥ 0.2 or Pe < 0.2 and membrane ≥ 20%). Each sample was measured in triplicate and a standard deviation was determined for the permeation constant Pe.

[15] = biological target: T11, 5HT3 (Homo sapiens, UniProt P46098); assay: Off-target screen 5HT3; type: binding; settings: 10 µM; single point, duplicates
T11 construct: purchased Eurofins CEREP SA

[16] = Lipophilicity (LogD, octanol/buffer); type: physicochemical; settings: 1-octanol / 25 mM phosphate buffer; pH 7.4, octanol/25 mM phosphate buffer
Method: The experiment started with the accurate coating of the hydrophobic layer (0.45 µm PVDF membranes), which was fixed on the bottom of each DIFI©-tube (Weidmann Medical Technology AG, Rapperswil, Switzerland). The coated membranes were then connected to a 96-well plate which has been prefilled with exactly 150 µl of the selected aqueous buffer solution (25 mM phosphate buffer, pH 7.4). The buffer solution contains already the compound of interest with a maximum starting concentration of 85 µM. To expand the measurement range down to logD = −0.5 and up to logD = +4, it is necessary to carry out the procedure at two different octanol/water ratios: One with an excess of octanol for hydrophilic compounds (logD < 1) and one with a low volume of octanol for the lipophilic compounds (logD > 1). Therefore, parts of the DIFI©-tubes were filled with 15 µl 1-octanol and another part with 1 µl 1-octanol. The resulting sandwich guarantees that the membrane was completely dipped in the buffer solution. The plate was then sealed and shaken for 12 h at room temperature (23°C). During this time, the substance is distributed between the layer, the octanol, and the buffer solution. After having reached a distribution equilibrium, the DIFI©-tubes were easily disassembled from the top of the 96-well plate, so that the remaining sample concentration in the aqueous phase could be analyzed by LC/MS.

[17] = biological target: T12, PPARγ (Homo sapiens, UniProt P37231); assay: Off-target screen PPARγ, agonist mode; type: cell-based; settings: 10 µM, single point, duplicates
T12 construct: purchased Eurofins CEREP SA

[18] = biological target: T13, PDE-5 (Homo sapiens, UniProt O76074); assay: Off-target screen PDE-5; type: biochemical; settings: 10 µM; single point, duplicates
T13 construct: purchased Eurofins CEREP SA

[19] = biological target: T14, HDAC4 (Homo sapiens, UniProt P56524); assay: Off-target screen HDAC4; type: biochemical; settings: 10 µM; single point, duplicates
T14 construct: purchased Eurofins CEREP SA
T14 sequence (P56524 whole entry): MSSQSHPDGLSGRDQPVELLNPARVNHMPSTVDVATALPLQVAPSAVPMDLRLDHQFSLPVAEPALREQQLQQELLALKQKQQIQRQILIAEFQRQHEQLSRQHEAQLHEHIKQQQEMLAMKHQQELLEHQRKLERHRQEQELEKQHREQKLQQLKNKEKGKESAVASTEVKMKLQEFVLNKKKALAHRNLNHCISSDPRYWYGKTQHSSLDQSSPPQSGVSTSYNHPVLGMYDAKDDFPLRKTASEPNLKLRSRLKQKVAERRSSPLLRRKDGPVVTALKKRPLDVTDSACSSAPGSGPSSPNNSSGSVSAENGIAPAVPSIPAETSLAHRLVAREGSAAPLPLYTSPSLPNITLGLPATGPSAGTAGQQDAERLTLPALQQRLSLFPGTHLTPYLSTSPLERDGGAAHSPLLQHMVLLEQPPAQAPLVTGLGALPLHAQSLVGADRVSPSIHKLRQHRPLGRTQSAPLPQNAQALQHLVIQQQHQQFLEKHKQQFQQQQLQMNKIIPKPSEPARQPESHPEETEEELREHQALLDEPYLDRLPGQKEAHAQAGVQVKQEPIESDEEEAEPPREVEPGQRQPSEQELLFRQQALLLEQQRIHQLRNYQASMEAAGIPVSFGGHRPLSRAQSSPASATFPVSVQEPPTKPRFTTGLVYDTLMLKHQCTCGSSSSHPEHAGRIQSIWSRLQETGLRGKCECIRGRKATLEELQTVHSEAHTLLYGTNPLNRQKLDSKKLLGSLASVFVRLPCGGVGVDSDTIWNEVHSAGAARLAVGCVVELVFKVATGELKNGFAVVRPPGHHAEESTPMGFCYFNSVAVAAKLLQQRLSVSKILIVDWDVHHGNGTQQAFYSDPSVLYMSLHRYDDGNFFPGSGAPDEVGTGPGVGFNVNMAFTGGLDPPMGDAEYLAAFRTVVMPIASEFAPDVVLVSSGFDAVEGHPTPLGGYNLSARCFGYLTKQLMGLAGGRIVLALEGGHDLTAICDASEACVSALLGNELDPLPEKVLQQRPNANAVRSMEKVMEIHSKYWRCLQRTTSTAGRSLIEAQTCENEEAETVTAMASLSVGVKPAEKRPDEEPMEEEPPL

T5 sequence (P31391 whole entry): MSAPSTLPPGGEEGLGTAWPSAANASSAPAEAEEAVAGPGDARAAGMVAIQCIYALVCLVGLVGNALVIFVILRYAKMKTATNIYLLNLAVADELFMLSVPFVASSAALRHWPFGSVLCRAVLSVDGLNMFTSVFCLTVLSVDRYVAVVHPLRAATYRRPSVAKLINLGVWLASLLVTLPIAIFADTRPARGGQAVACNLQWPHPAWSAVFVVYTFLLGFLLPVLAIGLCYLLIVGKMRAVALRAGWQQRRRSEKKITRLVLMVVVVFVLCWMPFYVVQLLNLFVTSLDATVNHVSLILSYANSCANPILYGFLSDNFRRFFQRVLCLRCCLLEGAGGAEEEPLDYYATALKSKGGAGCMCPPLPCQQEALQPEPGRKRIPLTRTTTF
T9 sequence (Q9UBY5 whole entry): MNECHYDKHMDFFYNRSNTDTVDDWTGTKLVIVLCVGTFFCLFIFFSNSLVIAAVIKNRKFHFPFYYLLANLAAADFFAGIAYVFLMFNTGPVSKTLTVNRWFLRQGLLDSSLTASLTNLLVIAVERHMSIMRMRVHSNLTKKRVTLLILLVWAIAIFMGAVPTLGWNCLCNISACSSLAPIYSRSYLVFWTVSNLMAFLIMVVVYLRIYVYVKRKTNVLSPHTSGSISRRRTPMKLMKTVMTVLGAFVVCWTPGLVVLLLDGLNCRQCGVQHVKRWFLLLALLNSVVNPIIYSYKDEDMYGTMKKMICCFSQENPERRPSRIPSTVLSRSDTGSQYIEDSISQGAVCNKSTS
T3 sequence (P35348 whole entry): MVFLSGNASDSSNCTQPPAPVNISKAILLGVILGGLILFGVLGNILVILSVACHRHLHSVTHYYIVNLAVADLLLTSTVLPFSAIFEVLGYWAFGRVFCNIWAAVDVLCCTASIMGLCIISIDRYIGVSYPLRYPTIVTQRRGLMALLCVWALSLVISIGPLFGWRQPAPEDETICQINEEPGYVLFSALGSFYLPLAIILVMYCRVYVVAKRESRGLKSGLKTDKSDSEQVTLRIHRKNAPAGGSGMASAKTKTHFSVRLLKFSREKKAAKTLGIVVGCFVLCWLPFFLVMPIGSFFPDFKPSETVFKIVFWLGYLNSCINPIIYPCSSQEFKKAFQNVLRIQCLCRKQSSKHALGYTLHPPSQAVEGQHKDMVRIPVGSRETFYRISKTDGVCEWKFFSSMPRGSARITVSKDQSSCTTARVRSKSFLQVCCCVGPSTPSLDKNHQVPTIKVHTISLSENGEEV
T10 sequence (P27338 whole entry): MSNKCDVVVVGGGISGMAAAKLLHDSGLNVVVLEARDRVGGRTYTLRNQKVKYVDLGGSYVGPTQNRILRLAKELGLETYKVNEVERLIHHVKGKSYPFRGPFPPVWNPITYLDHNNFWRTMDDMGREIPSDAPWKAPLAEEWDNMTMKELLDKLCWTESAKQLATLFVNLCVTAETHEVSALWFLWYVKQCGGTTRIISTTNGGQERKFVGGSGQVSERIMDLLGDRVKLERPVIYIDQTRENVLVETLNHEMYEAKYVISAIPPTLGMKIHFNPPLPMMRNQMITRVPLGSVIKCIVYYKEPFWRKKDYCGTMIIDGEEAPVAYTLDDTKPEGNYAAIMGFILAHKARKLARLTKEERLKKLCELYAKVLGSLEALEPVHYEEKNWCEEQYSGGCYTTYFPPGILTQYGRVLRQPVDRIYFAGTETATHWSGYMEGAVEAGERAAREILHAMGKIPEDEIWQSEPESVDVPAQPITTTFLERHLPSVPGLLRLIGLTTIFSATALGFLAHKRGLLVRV
Sequence of Glycine receptor (strychnine insensitive) (P35439 394-800): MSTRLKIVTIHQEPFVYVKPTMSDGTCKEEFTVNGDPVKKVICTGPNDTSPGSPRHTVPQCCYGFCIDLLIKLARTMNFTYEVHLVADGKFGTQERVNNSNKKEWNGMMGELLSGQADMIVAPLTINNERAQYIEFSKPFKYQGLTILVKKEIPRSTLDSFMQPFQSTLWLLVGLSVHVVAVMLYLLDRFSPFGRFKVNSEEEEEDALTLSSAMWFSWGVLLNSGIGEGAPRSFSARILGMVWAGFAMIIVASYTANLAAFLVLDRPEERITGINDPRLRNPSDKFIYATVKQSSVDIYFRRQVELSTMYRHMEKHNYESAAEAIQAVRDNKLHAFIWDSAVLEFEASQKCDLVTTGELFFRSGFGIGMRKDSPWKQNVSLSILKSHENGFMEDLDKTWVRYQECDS
T7 sequence (P14780 94-707): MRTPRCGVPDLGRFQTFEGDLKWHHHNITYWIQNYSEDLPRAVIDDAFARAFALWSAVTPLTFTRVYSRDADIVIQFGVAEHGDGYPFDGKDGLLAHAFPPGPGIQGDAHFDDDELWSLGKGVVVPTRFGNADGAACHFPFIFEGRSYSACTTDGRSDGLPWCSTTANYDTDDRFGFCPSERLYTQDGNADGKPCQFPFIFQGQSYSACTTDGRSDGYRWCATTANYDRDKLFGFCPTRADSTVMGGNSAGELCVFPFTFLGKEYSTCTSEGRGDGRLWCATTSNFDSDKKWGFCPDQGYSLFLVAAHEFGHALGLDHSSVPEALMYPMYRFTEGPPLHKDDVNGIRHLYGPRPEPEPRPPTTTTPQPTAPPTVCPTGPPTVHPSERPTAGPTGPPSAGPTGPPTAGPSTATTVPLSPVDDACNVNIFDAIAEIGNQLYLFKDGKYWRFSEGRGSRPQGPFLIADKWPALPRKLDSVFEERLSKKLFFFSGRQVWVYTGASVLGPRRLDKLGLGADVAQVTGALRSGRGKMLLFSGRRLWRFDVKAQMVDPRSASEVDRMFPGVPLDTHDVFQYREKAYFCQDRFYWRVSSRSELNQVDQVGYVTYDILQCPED
T4 sequence (P22303 32-614): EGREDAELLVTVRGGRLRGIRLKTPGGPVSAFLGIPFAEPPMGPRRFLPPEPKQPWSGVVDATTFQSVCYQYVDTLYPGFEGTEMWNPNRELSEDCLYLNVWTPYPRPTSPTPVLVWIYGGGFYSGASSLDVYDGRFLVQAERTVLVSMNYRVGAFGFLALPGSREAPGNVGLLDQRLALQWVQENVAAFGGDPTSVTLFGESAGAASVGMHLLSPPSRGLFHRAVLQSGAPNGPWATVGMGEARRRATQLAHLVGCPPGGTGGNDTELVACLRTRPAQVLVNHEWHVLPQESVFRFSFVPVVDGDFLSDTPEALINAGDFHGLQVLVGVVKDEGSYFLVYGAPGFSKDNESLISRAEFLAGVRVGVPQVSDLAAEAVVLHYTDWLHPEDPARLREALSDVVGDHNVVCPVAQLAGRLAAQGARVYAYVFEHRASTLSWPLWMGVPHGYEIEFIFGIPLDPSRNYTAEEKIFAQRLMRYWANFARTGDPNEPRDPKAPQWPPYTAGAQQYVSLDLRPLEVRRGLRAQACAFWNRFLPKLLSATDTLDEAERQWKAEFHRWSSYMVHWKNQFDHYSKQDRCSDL
T2 sequence (Q96DB2 whole entry): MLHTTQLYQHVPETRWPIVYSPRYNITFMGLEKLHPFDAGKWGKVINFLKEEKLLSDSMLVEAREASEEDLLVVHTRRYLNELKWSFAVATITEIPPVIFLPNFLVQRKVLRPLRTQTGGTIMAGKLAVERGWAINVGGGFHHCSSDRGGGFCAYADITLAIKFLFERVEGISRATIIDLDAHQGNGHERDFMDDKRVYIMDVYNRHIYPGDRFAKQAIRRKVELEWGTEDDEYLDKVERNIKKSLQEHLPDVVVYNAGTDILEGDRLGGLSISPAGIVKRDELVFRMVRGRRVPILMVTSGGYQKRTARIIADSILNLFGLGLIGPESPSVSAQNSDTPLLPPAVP

O=C(OCc1ccc(OC(F)(F)F)cc1)N1C[C@@H]2CN(C(=O)c3ccc4[nH]nnc4c3)C[C@H]2C1 [Compound 13, (3aS,6aS)-5-(1H-Benzotriazole-5-carbonyl)-hexahydro-pyrrolo[3,4-c]pyrrole-2-carboxylic acid 4-trifluoromethoxy-benzyl ester]
LPA2 receptor (h), antago. mode [% inhib] [1]: 49 % inhib
HDAC11 (h) [% inhib] [2]: 0 % inhib
Mic CL h [3]: 10/10/10 µL/m/mg prot
Alpha1A-adrenoreceptor (h) [% inhib] [4]: 6 % inhib
Acetylcholinesterase (h) [% inhib] [5]: -23 % inhib
Somatostatin receptor 4 (h) [% inhib] [6]: 12 % inhib
HDAC3 (h) [% inhib] [7]: 1 % inhib
MMP-9 (h) [% inhib] [8]: -22 % inhib
ACE (h) [% inhib] [9]: -25 % inhib
LPA3 receptor (h), agonist mode [% pos ctrl] [10]: -3 % pos ctrl
IC50 ([11]; Rattus norvegicus, free plasma concentration, male Wistar rats, 3, 10, 30 mg/kg po, sum of LPA 16:0, 18:0, 18:1, 20:4, read-out: IC50 for the lowering of total basal LPA): ~3.2 ng/mL (≈ 6.73 nM)
Estimated average ATX inhibition ([11]; rat, food admix 20 mg/kg, 2-weeks study at steady state, estimated from PK/PD relationship): > 75%
MAO-B (h) [% inhib] [12]: 6 % inhib
Glycine receptor (strychnine insensitive) (r) [% inhib] [13]: 17 % inhib
Papp [14]: 4.5 ×10⁻⁶ cm/s
5HT3 (h) [% inhib] [15]: -2 % inhib
logD at 12 h [16]: 3.2
PPARγ (h), agonist mode [% pos ctrl] [17]: 0 % pos ctrl
PDE-5 (h) [% inhib] [18]: 19 % inhib
HDAC4 (h) [% inhib] [19]: 3 % inhib
